# From the supplement of paper PMC10307832
# Compound: CC1CC(=O)N(C2=CN=C(N=C2N1C3CCCC3)NC4=C(C=C(C=C4)C(=O)NC5CCN(CC5)C)OC)C [NPK76-II-72-1] + Cc1cc(Nc2cc(N3CCN(C)CC3)nc(Sc3ccc(NC(=O)C4CC4)cc3)n2)n[nH]1 [Tozasertib] (partner 0.1 µM)
# Experiment: relative viability (nuclei count vs DMSO), 5 days (fraction); higher = more cells survive
# Conditions: first compound 0.3162 µM
# In short: (§1)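 Nuclei were stained with Hoechst during a one-step fixation (final 0.05% Triton X-100, 1% formaldehyde, 1 ug/ml Hoechst) carried out 5 days after dosing, then counted on 4× images. The cells, lung cancer lines in 1536-well plates, had been dosed by pin tool the day after seeding with one drug alone or a fixed anchor-drug dose plus five library-drug doses (not always all listed) in √10 steps. Relative viability is the nuclei count in treated wells divided by that in vehicle wells, and each value is the median of duplicate plates.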
row,Cell Line,relative viability
1,H3255,0.434
2,COR-L23,0.182
3,COR-L 105,0.407
4,LOU-NH91,0.576
5,ChaGo-K-1,0.225
6,NCI-H2170,0.527
7,HCC-44,0.795
8,SW 900,0.536
9,NCI-H2009,0.669
10,NCI-H661,0.386
11,SK-LU-1,0.305
12,NCI-H2228,0.213
13,NCI-H2023,0.308

# Same assay, conditions: first compound 1 µM
row,Cell Line,relative viability
1,NCI-H522,0.54
2,NCI-H1623,0.467
3,NCI-H727,0.649
4,NCI-H1650,0.386
5,NCI-H1993,0.627
6,SW 1573,0.21
7,NCI-H838,0.288
8,LCLC-103H,0.488
9,NCI-H520,0.487
10,NCI-H2126,0.888
11,EMC-BAC-2,0.316
12,NCI-H2085,0.855
13,HCC-366,0.169
14,NCI-H1666,0.666
15,NCI-H596,1.04
16,LK-2,0.213
17,NCI-H2087,0.249

row,Cell Line,relative viability
1,NCI-H2342,0.537
2,SK-MES-1,0.922
3,H3255,0.673
4,COR-L23,0.192
5,COR-L 105,0.328
6,LOU-NH91,0.741
7,ChaGo-K-1,0.231
8,NCI-H2170,0.812
9,HCC-44,1.04
10,SW 900,0.644
11,NCI-H1648,0.474
12,NCI-H2009,0.841
13,NCI-H661,0.36
14,SK-LU-1,0.38
15,NCI-H2228,0.422
16,NCI-H2023,0.44

# Compound: CC1CC(=O)N(C2=CN=C(N=C2N1C3CCCC3)NC4=C(C=C(C=C4)C(=O)NC5CCN(CC5)C)OC)C [NPK76-II-72-1] + NC(=O)Nc1cc(-c2cccc(F)c2)sc1C(=O)N[C@H]1CCCNC1 [AZD7762] (partner 0.2 µM)
# Experiment: as above
# Conditions: first compound 0.01 µM
# In short: as §1
row,Cell Line,relative viability
1,NCI-H522,0.945
2,NCI-H727,0.466
3,NCI-H1703,0.144
4,NCI-H1993,0.739
5,NCI-H838,0.826
6,NCI-H2126,0.95
7,EMC-BAC-2,1.02
8,NCI-H2085,0.923
9,HCC-366,0.233
10,NCI-H1666,0.84
11,NCI-H596,1.13
12,LK-2,0.367
13,NCI-H2087,1.06
14,NCI-H2342,0.501
15,H3255,0.841
16,LOU-NH91,0.728
17,ChaGo-K-1,0.829
18,NCI-H2170,0.799
19,HCC-44,1.02
20,SW 900,0.535
21,NCI-H1648,0.639

# Same assay, conditions: first compound 0.03162 µM
row,Cell Line,relative viability
1,NCI-H522,0.826
2,NCI-H727,0.67
3,NCI-H1703,0.115
4,NCI-H1993,0.706
5,NCI-H838,0.961
6,LCLC-103H,0.851
7,NCI-H2126,1.07
8,EMC-BAC-2,1.07
9,NCI-H2085,1.02
10,HCC-366,0.388
11,NCI-H1666,0.861
12,NCI-H596,1.12
13,LK-2,0.42
14,NCI-H2087,1.32
15,NCI-H2342,0.435
16,H3255,0.815
17,LOU-NH91,0.744
18,ChaGo-K-1,0.873
19,NCI-H2170,0.891
20,HCC-44,1.09
21,SW 900,0.645
22,NCI-H1648,0.563
23,NCI-H1792,0.702

# Same assay, conditions: first compound 0.1 µM
row,Cell Line,relative viability
1,NCI-H522,0.786
2,NCI-H727,0.545
3,NCI-H1703,0.174
4,NCI-H1993,0.97
5,NCI-H838,0.947
6,LCLC-103H,0.789
7,NCI-H2126,0.99
8,EMC-BAC-2,1.02
9,NCI-H2085,0.891
10,HCC-366,0.375
11,NCI-H1666,0.852
12,NCI-H596,1.27
13,LK-2,0.439
14,NCI-H2087,1.26
15,NCI-H2342,0.673
16,H3255,0.959
17,LOU-NH91,0.723
18,ChaGo-K-1,0.833
19,NCI-H2170,0.892
20,HCC-44,0.966
21,SW 900,0.771
22,NCI-H1648,0.57
23,NCI-H1792,0.848

# Same assay, conditions: first compound 0.3162 µM
row,Cell Line,relative viability
1,NCI-H727,0.537
2,NCI-H1993,0.713
3,NCI-H838,0.912
4,LCLC-103H,0.852
5,NCI-H2126,0.989
6,EMC-BAC-2,1.09
7,NCI-H2085,1
8,HCC-366,0.246
9,NCI-H1666,0.752
10,NCI-H596,1.15
11,LK-2,0.323
12,NCI-H2087,1.28
13,NCI-H2342,0.328
14,H3255,0.655
15,LOU-NH91,0.675
16,ChaGo-K-1,0.809
17,NCI-H2170,0.358
18,HCC-44,0.999
19,SW 900,0.569
20,NCI-H1648,0.66
21,NCI-H1792,0.686

# Same assay, conditions: first compound 1 µM
row,Cell Line,relative viability
1,NCI-H522,0.809
2,NCI-H727,0.558
3,NCI-H1703,0.0937
4,NCI-H1993,0.914
5,NCI-H838,0.976
6,LCLC-103H,0.745
7,NCI-H2126,1.01
8,EMC-BAC-2,1.17
9,NCI-H2085,1.16
10,HCC-366,0.468
11,NCI-H1666,1.01
12,NCI-H596,1.1
13,LK-2,0.379
14,NCI-H2087,1.32
15,NCI-H2342,0.462
16,H3255,0.988
17,LOU-NH91,0.798
18,ChaGo-K-1,0.839
19,NCI-H2170,0.975
20,HCC-44,1.07
21,SW 900,0.761
22,NCI-H1648,0.533
23,NCI-H1792,0.732
